Laboratory results from patent US20210353683A1, “ADDITIVE FOR MEDIUM FOR PROMOTING PRODUCTION OF PARACRINE FACTOR” (NISSAN CHEMICAL CORPORATION, priority 2018, published 2021).

Experiments:
Assay type in all cases: cell-based
[1] = tested on: Human bone marrow-derived mesenchymal stem cells (hMSC); assay: Paracrine factor release amount test 1: Angiogenin (ANG) in culture supernatant by ELISA; settings: 5 μM for 48 hr, then 48 hr in compound-free medium, relative to 2D DMSO control
Description: (§1) Human bone marrow-derived mesenchymal stem cells (hMSC, manufactured by PromoCell) were precultured by a single layer culture method (2D) using Mesenchymal Stem Cell Growth Medium 2 (manufactured by PromoCell). hMSCs were suspended in the same medium. In three-dimensional culture method (3D), hMSCs were seeded at 5×10^5 cells/2 mL/well on a cell-non-adhesive 6-well EZSPHERE plate (manufactured by AGC TECHNO GLASS, #4810-900) having a depression on the bottom surface. In 2D, hMSCs were seeded on a 6-well flat bottom plate (manufactured by Corning Incorporated, #3516) at 5×10^5 cells/2 Continuously, compounds k-1:B-1, k-1:D-1, k-1:J-1 dissolved in DMSO were added at 2 μL/well to a final concentration of 5 μM, and the mixture was cultured in an incubator at 37° C., 5% CO2 for 48 hr. As a control, DMSO was added at a final concentration of 0.05%. After 48 hr, the medium was exchanged with a medium not containing the compound, and the cells were cultured in an incubator at 37° C., 5% CO2. After 48 hr, the culture supernatant was recovered. The number of cells at the time of recovery of the culture supernatant was measured by dispersing the cells in single cells using Detach Kit (manufactured by PromoCell), suspending a part thereof in Trypan Blue (manufactured by Wako Pure Chemical Industries, Ltd.) and counting the number of viable cells using TC-20 (manufactured by BIO-RAD).
Angiogenin (ANG), a cytokine which is one kind of paracrine factor contained in the culture supernatant, was quantified using a plate reader. For the quantification, Human Angiogenin ELISA Kit (manufactured by Abcam, #ab99970) was used.
(§2) The concentration of ANG in the culture supernatant was normalized by the cell count, and the relative values for the control group cultured in 2D are shown in Table 4. As a result, the secretion amount increased in both 2D culture and 3D culture by adding compounds k-1:B-1, k-1:D-1, and compound k-1:J-1. Therefrom it was clarified that the secretion of the paracrine factor can be promoted by adding the compounds k-1:B-1, k-1:D-1, and compound k-1:J-1 to the mesenchymal stem cells.

[2] = tested on: Human bone marrow-derived mesenchymal stem cells (hMSC); assay: Paracrine factor release amount test 3: VEGF in culture supernatant by ELISA; settings: 5 μM for 48 hr, then 48 hr in compound-free medium, relative to 2D DMSO control
Description: as §1, with “5×10^5 cells/2 mL/well. Continuously, compounds” for “5×10^5 cells/2 Continuously, compounds”
Vascular endothelial growth factor (VEGF), a cytokine which is one kind of paracrine factor contained in the culture supernatant, was quantified using a plate reader. For the quantification, Human VEGF ELISA Kit (manufactured by Abcam, #ab100662) was used.
as §2, with “VEGF” for “ANG”, “7.” for “4.”

[3] = tested on: Human bone marrow-derived mesenchymal stem cells (hMSC); assay: Paracrine factor release amount test 2: Stanniocalcin-1 (STC-1) in culture supernatant by ELISA; settings: 5 μM for 48 hr, then 48 hr in compound-free medium, relative to 2D DMSO control
Description: (§3) Human bone marrow-derived mesenchymal stem cells (hMSC, manufactured by PromoCell) were precultured by a single layer culture method (2D) using Mesenchymal Stem Cell Growth Medium 2 (manufactured by PromoCell). hMSCs were suspended in the same medium. In three-dimensional culture method (3D), hMSCs were seeded at 5×10^5 cells/2 mL/well on a cell-non-adhesive 6-well EZSPHERE plate (manufactured by AGC TECHNO GLASS, #4810-900) having a depression on the bottom surface. In 2D, hMSCs were seeded on a 6-well flat bottom plate (manufactured by Corning Incorporated, #3516) at 5×10^5 cells/2 mL/well. Continuously, compound k-1:B-1 dissolved in DMSO was added at 2 μL/well to a final concentration of 5 μM, and the mixture was cultured in an incubator at 37° C., 5% CO2 for 48 hr. […] The number of cells at the time of recovery of the culture supernatant was measured by dispersing the cells in single cells using Detach Kit (manufactured by PromoCell), suspending a part thereof in Trypan Blue (manufactured by Wako Pure Chemical Industries, Ltd.) and counting the number of viable cells using TC-20 (manufactured by BIO-RAD).
Stanniocalcin-1 (STC-1), a cytokine which is one kind of paracrine factor contained in the culture supernatant, was quantified using a plate reader. For the quantification, Human Stanniocalcin ELISA Kit (manufactured by Abcam, #ab213829) was used. […]

[4] = tested on: Human bone marrow-derived mesenchymal stem cells (hMSC); assay: Paracrine factor release under inflammation stimulation (TNFα): TSG-6 in culture supernatant by ELISA; settings: 5 μM for 48 hr, then 48 hr with 10 ng/mL TNFα only, relative to 2D DMSO control
Description: as §3, with “k-1:J-1” for “k-1:B-1”, “hr. As a control, DMSO was added at a final concentration of 0.05%.” for “hr.”
Tumor necrosis factor-inducible gene 6 protein (TSG-6), a cytokine which is one kind of paracrine factor contained in the culture supernatant, was quantified using a plate reader. […]

[5] = tested on: Human bone marrow-derived mesenchymal stem cells (hMSC); assay: Paracrine factor release under inflammation stimulation (TNFα): MCP-1 in culture supernatant by flow cytometer; settings: 5 μM for 48 hr, then 48 hr with 10 ng/mL TNFα only, relative to 2D DMSO control
Description: as §3, with “mL/well.” for “mL/well. Continuously, compound k-1:B-1 dissolved in DMSO was added at 2 μL/well to a final concentration of 5 μM, and the mixture was cultured in an incubator at 37° C., 5% CO2 for 48 hr.”
Monocyte Chemotactic Protein-1 (MCP-1), a cytokine which is one kind of paracrine factor contained in the culture supernatant, was quantified using a flow cytometer. The quantification analysis was performed using BD™ CBA Flex Set (manufactured by BD 558287) according to the protocol of BD. […]

| SMILES | ANG, relative value of secretion amount (pg) per 10000 cells ([1]; 3D culture) | VEGF, relative value of secretion amount (pg) per 10000 cells ([2]; 3D culture) | ANG, relative value of secretion amount (pg) per 10000 cells ([1]; 2D culture) | STC-1, relative value of secretion amount (pg) per 10000 cells ([3]; 2D culture) | STC-1, relative value of secretion amount (pg) per 10000 cells ([3]; 3D culture) | VEGF, relative value of secretion amount (pg) per 10000 cells ([2]; 2D culture) | TSG-6, relative value of secretion amount (pg) per 10000 cells ([4]; 2D culture) | TSG-6, relative value of secretion amount (pg) per 10000 cells ([4]; 3D culture) | MCP-1, relative value of secretion amount (pg) per 10000 cells ([5]; 2D culture) | MCP-1, relative value of secretion amount (pg) per 10000 cells ([5]; 3D culture) |
| --- | --- | --- | --- | --- | --- | --- | --- | --- | --- | --- |
| CCC(=NNC(=O)CNc1cccc(O)c1)c1ccc(O)c(C)c1O [k-1:D-1] | 1.50 | 3.27 |  |  |  |  |  |  |  |  |
| CCC(=NNC(=O)C(C)Nc1ccccc1)c1ccc(O)c(C)c1O (racemic) [k-1:B-1] | 1.38 | 3.59 | 1.34 | 2.67 | 8.95 | 4.40 |  |  |  |  |
| CCC(=NNC(=O)NCc1cccc(O)c1)c1ccc(O)c(C)c1O [k-1:J-1] | 1.38 | 6.18 |  |  |  |  | 1.56 | 3.21 | 0.85 | 1.41 |
